Among the data in PubChem BioAssay AID651630 (Sanford-Burnham Center for Chemical Genomics, 2012) are IC50 cytotoxicity (DAPI nuclear signal decrease) and IC50 values, retold here.

As a reminder, the IC50 is the concentration that gives 50% inhibition.

Calls of active or inactive are those of the source.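 How the source made its calls: active means lipid-stain IC50 at or below a set limit, with nuclear-stain toxicity IC50 at least five times higher; inactive means the rest.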

The subject of one assay is DAPI. Put plainly: TAG lipid buildup inhibition with viability readout – cell-based, panel, Nile Red and DAPI fluorescence, H9c2, dose response (AID 651630).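 Further: cells exposed to compound overnight before fixation and staining.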 As to conditions: H9c2 cells, DAPI nuclear fluorescence (cytotoxicity counter-readout), oleic acid.
Another assay relates to TAG. The description is as above. Conditions: H9c2 cells, Nile Red TAG fluorescence, oleic acid.

As to `O=C(Nc1cccc(-c2csc(Nc3ccc(Cl)cc3)n2)c1)c1cc([N+](=O)[O-])cc(C(F)(F)F)c1`, the IC50 cytotoxicity (DAPI nuclear signal decrease) is > 25 µM (inactive) with DAPI (mean of runs), over 25 µM in the assay on DAPI (run 1) and over 25 µM with DAPI (run 2). For the same compound, the IC50 in the assay on TAG (mean of runs) is 13.9 µM; with TAG (run 1) it was 13.4 µM; in the assay with TAG (run 2), 14.4 µM.
Turning to `Cc1ccc(/C=N/NC(=O)c2c(C)nc3ccc(Br)cn23)cc1`, the figures for the IC50 cytotoxicity (DAPI nuclear signal decrease) with DAPI (mean of runs), in the assay with DAPI (run 1) and with DAPI (run 2) were > 25 µM (inactive), over 25 µM and over 25 µM, respectively. Further, the IC50 was > 25 µM (inactive) in the assay on TAG (mean of runs), over 25 µM with TAG (run 1) and over 25 µM with TAG (run 2).
Regarding `CC(Sc1nc(NCc2ccccc2)nc(N2CCOCC2)n1)C(=O)Nc1ccccc1` (centres undefined), the IC50 cytotoxicity (DAPI nuclear signal decrease) in the assay on DAPI (run 1) and in the assay with DAPI (run 2) was over 25 µM in each case. Also, the values for the IC50 in the assay with TAG (mean of runs), in the assay on TAG (run 1) and with TAG (run 2) were 1.44 µM, 1.29 µM and 1.58 µM, respectively.
Turning to `CCN(CC)c1ccc(/C=C2\CCC(/C=C(/C#N)C(=O)Nc3ccccc3F)=C2N2CCOCC2)cc1`, the IC50 cytotoxicity (DAPI nuclear signal decrease) in the assay on DAPI (run 1) and in the assay with DAPI (run 2) was over 25 µM in each case. In addition, the IC50 in the assay on TAG (mean of runs), in the assay on TAG (run 1) and with TAG (run 2) was under 0.78 µM throughout.
`CCCCCc1cc(=O)oc2c(C(CCN(CC)CC)c3cc(OC)c(OC)c(OC)c3)c(OC)cc(OC)c12` (centres undefined): the IC50 cytotoxicity (DAPI nuclear signal decrease) in the assay with DAPI (mean of runs) was > 25 µM (inactive); in the assay on DAPI (run 1) it was over 25 µM; in the assay on DAPI (run 2) it was over 25 µM. In addition, the IC50 with TAG (mean of runs) was > 25 µM (inactive); in the assay with TAG (run 1), over 25 µM; with TAG (run 2), over 25 µM.
Take `O=C(Nc1cccc(Cl)c1)c1nc[nH]c1C(=O)NCCCNC(=O)c1[nH]cnc1C(=O)Nc1cccc(Cl)c1`: the IC50 cytotoxicity (DAPI nuclear signal decrease) was > 25 µM (inactive) in the assay with DAPI (mean of runs), over 25 µM in the assay on DAPI (run 1) and over 25 µM with DAPI (run 2). Moreover, the half-inhibitory concentration (IC50) in the assay on TAG (run 1) was 9.63 µM; in the assay with TAG (run 2) it was over 25 µM.
For the compound `Cc1cccc(N2CCN(C(=O)c3c(-c4ccccc4Cl)noc3C)CC2)c1C`, the IC50 cytotoxicity (DAPI nuclear signal decrease) with DAPI (mean of runs) was > 25 µM (inactive); with DAPI (run 1), over 25 µM; with DAPI (run 2) it was over 25 µM. In addition, the IC50 in the assay with TAG (mean of runs) was 16.3 µM (inactive); in the assay on TAG (run 1) it was 16.5 µM; in the assay on TAG (run 2) it was 16 µM.
As to `Cc1cccc2c(C(=O)N3CCN(c4ccccc4)CC3)cc(-c3ccncc3)nc12`, the IC50 cytotoxicity (DAPI nuclear signal decrease) in the assay with DAPI (mean of runs) is > 25 µM (inactive); in the assay with DAPI (run 1), over 25 µM; in the assay with DAPI (run 2), over 25 µM. Also, the IC50 is 8.06 µM with TAG (mean of runs), 7.82 µM with TAG (run 1) and 8.31 µM with TAG (run 2).
As for `COc1ccc(/C=C2/CCCc3ccccc3C2=O)cc1`, the values for the IC50 cytotoxicity (DAPI nuclear signal decrease) in the assay on DAPI (mean of runs), in the assay on DAPI (run 1) and in the assay with DAPI (run 2) were > 25 µM (inactive), over 25 µM and over 25 µM, respectively. In addition, the IC50 with TAG (mean of runs) is > 25 µM (inactive); in the assay on TAG (run 1) it was over 25 µM; with TAG (run 2) it was over 25 µM.
With `Cc1cccc2sc(NC(=O)C3CCCN(S(=O)(=O)c4cccc5nonc45)C3)nc12` (centres undefined), the IC50 cytotoxicity (DAPI nuclear signal decrease) in the assay with DAPI (mean of runs) was > 25 µM (inactive); in the assay with DAPI (run 1), over 25 µM; with DAPI (run 2), over 25 µM. For the same compound, the IC50 was 10.5 µM in the assay on TAG (mean of runs), 12.2 µM with TAG (run 1) and 8.72 µM in the assay with TAG (run 2).
For the compound `CCOc1ccc(C(=O)Nc2nnc(NC(=S)Nc3ccccc3)s2)cc1`, the IC50 cytotoxicity (DAPI nuclear signal decrease) was > 25 µM (inactive) with DAPI (mean of runs), over 25 µM in the assay with DAPI (run 1) and over 25 µM in the assay on DAPI (run 2). Besides, the half-maximal inhibitory concentration (IC50) is over 25 µM with TAG (run 1) and 23 µM in the assay with TAG (run 2).
Regarding `CC(=O)Nc1cccc(-c2ccnc3c2CC(C)(C(=O)NCc2ccc(N(C)C)cc2)O3)c1` (centres undefined), the IC50 cytotoxicity (DAPI nuclear signal decrease) with DAPI (mean of runs) is > 25 µM (inactive); in the assay on DAPI (run 1), over 25 µM; with DAPI (run 2), over 25 µM. In addition, the results for the IC50 in the assay with TAG (mean of runs), in the assay with TAG (run 1) and in the assay with TAG (run 2) were 15.1 µM (inactive), 14.7 µM and 15.5 µM, respectively.
Turning to `CN(C)CC(O)c1ccc(C=Cc2ccc(Cl)cc2)cc1` (centres undefined), the IC50 cytotoxicity (DAPI nuclear signal decrease) was > 25 µM (inactive) with DAPI (mean of runs), over 25 µM in the assay with DAPI (run 1) and over 25 µM in the assay on DAPI (run 2). Further, the IC50 with TAG (mean of runs) was 13.8 µM; with TAG (run 1), 11.6 µM; with TAG (run 2), 16.1 µM.
Take `COc1ccc(NC(=O)Cn2c(=O)n(-c3ccc(CC(=O)NCc4ccco4)cc3)c(=O)c3ccccc32)cc1`: the results for the IC50 cytotoxicity (DAPI nuclear signal decrease) in the assay with DAPI (mean of runs), in the assay with DAPI (run 1) and with DAPI (run 2) were > 25 µM (inactive), over 25 µM and over 25 µM, respectively. In addition, the IC50 with TAG (run 1) is 24.7 µM; in the assay on TAG (run 2), over 25 µM.
On to `COc1cc2c(cc1OC)C(C)N(C(=O)c1cc3c(C)cc(C)cc3[nH]1)CC2` (centres undefined), for which the IC50 cytotoxicity (DAPI nuclear signal decrease) was > 25 µM (inactive) with DAPI (mean of runs), over 25 µM in the assay with DAPI (run 1) and over 25 µM with DAPI (run 2). In addition, the values for the IC50 in the assay on TAG (mean of runs), in the assay with TAG (run 1) and in the assay on TAG (run 2) were 9.16 µM, 9.59 µM and 8.73 µM, respectively.
Take `C=CCC[C@H](Cc1ccc(F)cc1)C(=O)OC[C@H](C)NC(=O)[C@@H](CC=C)CC(=O)N[C@H](CO)Cc1ccccc1`: the IC50 cytotoxicity (DAPI nuclear signal decrease) with DAPI (mean of runs) was > 25 µM (inactive); with DAPI (run 1), over 25 µM; with DAPI (run 2), over 25 µM. Further, the IC50 is 15.4 µM (inactive) in the assay on TAG (mean of runs), 11.9 µM in the assay with TAG (run 1) and 18.9 µM in the assay on TAG (run 2).
`NC(=O)c1cccc(-c2ccnc3c2CC(C(=O)NCc2ccccc2)O3)c1` (centres undefined): the values for the IC50 cytotoxicity (DAPI nuclear signal decrease) in the assay on DAPI (mean of runs), in the assay on DAPI (run 1) and in the assay with DAPI (run 2) were > 25 µM (inactive), over 25 µM and over 25 µM, respectively. Moreover, the IC50 with TAG (mean of runs) was > 25 µM (inactive); in the assay on TAG (run 1) it was over 25 µM; in the assay on TAG (run 2) it was over 25 µM.
Turning to `CCOC(=O)/C(=N\Nc1ccc(Cl)cc1)c1csc(Nc2ccccc2)n1`, the IC50 cytotoxicity (DAPI nuclear signal decrease) in the assay with DAPI (mean of runs) was 22.5 µM (inactive); in the assay on DAPI (run 1), 20.6 µM; with DAPI (run 2), 24.4 µM. In addition, the 50% inhibitory concentration (IC50) is 6.51 µM with TAG (mean of runs), 6.29 µM in the assay with TAG (run 1) and 6.72 µM with TAG (run 2).
For the compound `c1ccc(Oc2nc(-c3ccccn3)nc3ccccc23)cc1`, the results for the IC50 cytotoxicity (DAPI nuclear signal decrease) in the assay on DAPI (mean of runs), with DAPI (run 1) and with DAPI (run 2) were > 25 µM (inactive), over 25 µM and over 25 µM, respectively. Moreover, the results for the IC50 with TAG (mean of runs), with TAG (run 1) and in the assay on TAG (run 2) were > 25 µM (inactive), over 25 µM and over 25 µM, respectively.
In the case of `CC(C)c1ccc(Nc2nc(N3CCOCC3)nc(N3CCOCC3)n2)cc1`, the IC50 cytotoxicity (DAPI nuclear signal decrease) with DAPI (run 1) and in the assay on DAPI (run 2) was over 25 µM in each case. Besides, the values for the 50% inhibitory concentration (IC50) in the assay with TAG (mean of runs), with TAG (run 1) and in the assay on TAG (run 2) were 3.9 µM, 4.38 µM and 3.41 µM, respectively.
For `CN1CCCC(n2nc(Cc3ccc(Cl)cc3)c3ccccc3c2=O)CC1` (centres undefined), the values for the IC50 cytotoxicity (DAPI nuclear signal decrease) in the assay with DAPI (mean of runs), in the assay on DAPI (run 1) and in the assay with DAPI (run 2) were > 25 µM (inactive), over 25 µM and over 25 µM, respectively. Besides, the IC50 with TAG (mean of runs) was 18.3 µM (inactive); with TAG (run 1), 24.2 µM; in the assay on TAG (run 2), 12.4 µM.
Consider `CCOC(=O)c1c(CN2CCNCC2)nc2ccc(Cl)cc2c1-c1ccccc1`, for which the values for the IC50 cytotoxicity (DAPI nuclear signal decrease) with DAPI (mean of runs), with DAPI (run 1) and with DAPI (run 2) were 16.8 µM (inactive), 17.1 µM and 16.5 µM, respectively. Moreover, the IC50 with TAG (mean of runs) was > 25 µM (inactive); with TAG (run 1), over 25 µM; with TAG (run 2) it was over 25 µM.
As to `CCOc1ccc(CCNC(=O)c2cc3sc(Cl)cc3n2C)cc1OCC`, the IC50 cytotoxicity (DAPI nuclear signal decrease) with DAPI (mean of runs) was > 25 µM (inactive); in the assay with DAPI (run 1), over 25 µM; in the assay with DAPI (run 2) it was over 25 µM. Further, the concentration for half-maximal inhibition (IC50) in the assay with TAG (mean of runs) was 5.75 µM; in the assay with TAG (run 1), 7.67 µM; in the assay with TAG (run 2), 3.82 µM.
Turning to `CCCc1[nH]n(-c2ccc([N+](=O)[O-])cc2)c(=O)c1C=NCCc1c[nH]c2ccccc12`, the IC50 cytotoxicity (DAPI nuclear signal decrease) in the assay on DAPI (mean of runs) is > 25 µM (inactive); with DAPI (run 1), over 25 µM; with DAPI (run 2), over 25 µM. The results for the IC50 with TAG (mean of runs), in the assay on TAG (run 1) and with TAG (run 2) were 11.9 µM, 10.3 µM and 13.6 µM, respectively.
On to `COC(=O)[C@@]1(Cc2ccc(OC)cc2)[C@@H]2C(=CC(=O)[C@H]2CC(=O)C(=O)N2CCCC2)CN1C(=O)c1ccccc1`, for which the figures for the IC50 cytotoxicity (DAPI nuclear signal decrease) in the assay on DAPI (run 1) and with DAPI (run 2) were 21 µM and over 25 µM, respectively. Moreover, the IC50 is > 25 µM (inactive) with TAG (mean of runs), over 25 µM with TAG (run 1) and over 25 µM in the assay with TAG (run 2).
For the compound `Cc1ccc(NC(=S)N(CCCN2CCCC2)Cc2cccn2Cc2ccc(Cl)cc2)cc1Cl`, the values for the IC50 cytotoxicity (DAPI nuclear signal decrease) in the assay with DAPI (run 1) and in the assay on DAPI (run 2) were over 25 µM and 23.1 µM, respectively. Besides, the values for the IC50 with TAG (mean of runs), with TAG (run 1) and in the assay on TAG (run 2) were > 25 µM (inactive), over 25 µM and over 25 µM, respectively.
As for `Cc1nn(-c2cccc(Cl)c2)c2nc(-c3ccncc3)cc(C(=O)N3CCOCC3)c12`, the IC50 cytotoxicity (DAPI nuclear signal decrease) in the assay on DAPI (mean of runs) was > 25 µM (inactive); in the assay on DAPI (run 1), over 25 µM; with DAPI (run 2), over 25 µM. In addition, the IC50 was > 25 µM (inactive) with TAG (mean of runs), over 25 µM with TAG (run 1) and over 25 µM in the assay with TAG (run 2).
